According to ChEMBL document CHEMBL4014331, “Design and Synthesis of Soluble and Cell-Permeable PI3Kδ Inhibitors for Long-Acting Inhaled Administration” (J Med Chem, 2017):
In brackets after ≈: the same amount, converted by molar mass.

Assays:
[1] = target: T1, Phosphatidylinositol 4,5-bisphosphate 3-kinase catalytic subunit delta isoform (Homo sapiens, UniProt O00329); assay: Inhibition of PI3Kdelta in human JeKo1 cells assessed as reduction in Akt phosphorylation at Ser473 residue preincubated for 60 mins followed by Anti-IgM stimulation for 10 mins by TR-FRET assay; format: cell-based
T1 sequence (O00329 whole entry): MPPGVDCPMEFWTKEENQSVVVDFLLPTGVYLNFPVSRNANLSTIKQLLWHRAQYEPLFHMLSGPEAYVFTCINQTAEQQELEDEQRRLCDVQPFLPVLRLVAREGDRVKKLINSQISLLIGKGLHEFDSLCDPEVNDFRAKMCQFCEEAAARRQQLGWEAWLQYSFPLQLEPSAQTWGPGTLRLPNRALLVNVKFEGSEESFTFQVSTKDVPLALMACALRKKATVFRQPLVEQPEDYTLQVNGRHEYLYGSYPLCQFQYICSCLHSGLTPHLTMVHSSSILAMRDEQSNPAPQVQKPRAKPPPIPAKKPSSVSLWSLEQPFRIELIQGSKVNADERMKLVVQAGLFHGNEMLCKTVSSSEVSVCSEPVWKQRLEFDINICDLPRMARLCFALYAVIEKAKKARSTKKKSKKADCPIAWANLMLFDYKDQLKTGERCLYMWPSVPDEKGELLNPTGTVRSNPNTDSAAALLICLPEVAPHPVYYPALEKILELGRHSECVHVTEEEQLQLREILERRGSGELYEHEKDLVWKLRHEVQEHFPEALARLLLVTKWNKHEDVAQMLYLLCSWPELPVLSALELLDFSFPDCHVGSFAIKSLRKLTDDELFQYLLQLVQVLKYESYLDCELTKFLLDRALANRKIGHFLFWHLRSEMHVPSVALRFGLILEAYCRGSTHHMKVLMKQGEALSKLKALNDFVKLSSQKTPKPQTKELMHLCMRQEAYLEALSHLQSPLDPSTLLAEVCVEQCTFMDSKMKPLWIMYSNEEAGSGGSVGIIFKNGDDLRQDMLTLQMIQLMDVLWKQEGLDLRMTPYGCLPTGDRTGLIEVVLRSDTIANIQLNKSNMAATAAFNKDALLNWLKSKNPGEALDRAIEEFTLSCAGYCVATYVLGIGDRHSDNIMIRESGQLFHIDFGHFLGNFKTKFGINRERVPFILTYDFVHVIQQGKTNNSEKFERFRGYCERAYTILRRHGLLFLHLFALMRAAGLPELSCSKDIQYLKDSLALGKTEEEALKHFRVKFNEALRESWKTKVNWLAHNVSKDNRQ

[2] = target: Phosphatidylinositol 4,5-bisphosphate 3-kinase catalytic subunit gamma isoform (Homo sapiens, UniProt P48736); assay: Inhibition of recombinant human His6-tagged PI3Kgamma (144 to 1102 residues) using DiC8-PIP2 as substrate preincubated for 15 mins followed by substrate addition measured after 60 mins by ADP-Glo assay
Sequence of Phosphatidylinositol 4,5-bisphosphate 3-kinase catalytic subunit gamma isoform (P48736 whole entry, the tested form may be a part, canonical isoform): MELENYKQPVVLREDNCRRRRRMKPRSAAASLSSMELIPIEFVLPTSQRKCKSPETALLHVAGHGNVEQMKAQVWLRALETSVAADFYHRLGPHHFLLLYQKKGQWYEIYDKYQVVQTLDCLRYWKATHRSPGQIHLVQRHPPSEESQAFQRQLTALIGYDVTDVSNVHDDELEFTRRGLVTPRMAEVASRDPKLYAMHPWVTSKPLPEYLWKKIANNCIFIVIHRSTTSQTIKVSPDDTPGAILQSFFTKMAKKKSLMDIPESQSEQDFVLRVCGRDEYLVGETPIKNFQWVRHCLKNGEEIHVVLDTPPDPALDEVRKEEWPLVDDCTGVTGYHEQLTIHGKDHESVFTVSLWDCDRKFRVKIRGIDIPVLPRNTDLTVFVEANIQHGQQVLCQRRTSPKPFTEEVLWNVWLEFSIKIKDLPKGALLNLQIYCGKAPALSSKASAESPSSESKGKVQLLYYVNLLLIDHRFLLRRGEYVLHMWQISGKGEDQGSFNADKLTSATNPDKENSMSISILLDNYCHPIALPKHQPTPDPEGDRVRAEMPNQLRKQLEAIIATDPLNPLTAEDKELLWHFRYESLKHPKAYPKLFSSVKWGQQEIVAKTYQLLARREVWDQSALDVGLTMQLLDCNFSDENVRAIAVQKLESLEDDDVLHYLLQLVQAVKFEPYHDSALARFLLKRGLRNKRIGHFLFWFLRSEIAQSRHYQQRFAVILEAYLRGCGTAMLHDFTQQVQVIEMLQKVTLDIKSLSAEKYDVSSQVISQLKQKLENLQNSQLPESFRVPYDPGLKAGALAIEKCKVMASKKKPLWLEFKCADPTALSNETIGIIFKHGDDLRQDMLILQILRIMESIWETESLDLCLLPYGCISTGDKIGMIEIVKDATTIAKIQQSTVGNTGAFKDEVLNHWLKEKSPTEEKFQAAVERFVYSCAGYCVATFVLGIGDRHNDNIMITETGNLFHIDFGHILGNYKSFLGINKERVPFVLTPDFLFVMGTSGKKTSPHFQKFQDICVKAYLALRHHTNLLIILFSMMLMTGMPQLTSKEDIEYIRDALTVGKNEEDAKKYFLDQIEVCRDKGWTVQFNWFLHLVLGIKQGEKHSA

PI3K p110 beta/p85 alpha = PI3K p110 beta/p85 alpha (Homo sapiens, UniProt P42338); assay: Inhibition of recombinant human His6-tagged PI3K p110beta/p85alpha using DiC8-PIP2 as substrate preincubated for 15 mins followed by substrate addition measured after 60 mins by ADP-Glo assay; format: protein-complex assay
Sequence of PI3K p110 beta/p85 alpha (P27986 whole entry): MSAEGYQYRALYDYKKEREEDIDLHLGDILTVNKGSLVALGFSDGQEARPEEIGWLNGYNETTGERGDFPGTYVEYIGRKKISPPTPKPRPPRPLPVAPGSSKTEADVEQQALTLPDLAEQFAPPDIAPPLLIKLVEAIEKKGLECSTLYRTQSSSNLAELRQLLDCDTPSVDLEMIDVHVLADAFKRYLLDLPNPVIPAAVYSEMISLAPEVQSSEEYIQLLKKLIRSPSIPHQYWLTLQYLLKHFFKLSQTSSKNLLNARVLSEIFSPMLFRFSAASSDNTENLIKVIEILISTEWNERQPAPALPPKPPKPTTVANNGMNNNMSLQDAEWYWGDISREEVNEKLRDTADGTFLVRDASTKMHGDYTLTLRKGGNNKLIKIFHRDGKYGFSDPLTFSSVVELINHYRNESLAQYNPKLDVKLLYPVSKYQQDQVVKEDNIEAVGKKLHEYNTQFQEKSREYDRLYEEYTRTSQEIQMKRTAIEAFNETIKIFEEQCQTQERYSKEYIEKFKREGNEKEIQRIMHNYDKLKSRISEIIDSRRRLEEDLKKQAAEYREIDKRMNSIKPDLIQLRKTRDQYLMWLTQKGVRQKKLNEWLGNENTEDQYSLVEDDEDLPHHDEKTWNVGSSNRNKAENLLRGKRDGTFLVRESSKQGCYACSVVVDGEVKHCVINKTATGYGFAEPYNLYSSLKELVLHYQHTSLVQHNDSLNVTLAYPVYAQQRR
Sequence of PI3K p110 beta/p85 alpha (P42338 whole entry): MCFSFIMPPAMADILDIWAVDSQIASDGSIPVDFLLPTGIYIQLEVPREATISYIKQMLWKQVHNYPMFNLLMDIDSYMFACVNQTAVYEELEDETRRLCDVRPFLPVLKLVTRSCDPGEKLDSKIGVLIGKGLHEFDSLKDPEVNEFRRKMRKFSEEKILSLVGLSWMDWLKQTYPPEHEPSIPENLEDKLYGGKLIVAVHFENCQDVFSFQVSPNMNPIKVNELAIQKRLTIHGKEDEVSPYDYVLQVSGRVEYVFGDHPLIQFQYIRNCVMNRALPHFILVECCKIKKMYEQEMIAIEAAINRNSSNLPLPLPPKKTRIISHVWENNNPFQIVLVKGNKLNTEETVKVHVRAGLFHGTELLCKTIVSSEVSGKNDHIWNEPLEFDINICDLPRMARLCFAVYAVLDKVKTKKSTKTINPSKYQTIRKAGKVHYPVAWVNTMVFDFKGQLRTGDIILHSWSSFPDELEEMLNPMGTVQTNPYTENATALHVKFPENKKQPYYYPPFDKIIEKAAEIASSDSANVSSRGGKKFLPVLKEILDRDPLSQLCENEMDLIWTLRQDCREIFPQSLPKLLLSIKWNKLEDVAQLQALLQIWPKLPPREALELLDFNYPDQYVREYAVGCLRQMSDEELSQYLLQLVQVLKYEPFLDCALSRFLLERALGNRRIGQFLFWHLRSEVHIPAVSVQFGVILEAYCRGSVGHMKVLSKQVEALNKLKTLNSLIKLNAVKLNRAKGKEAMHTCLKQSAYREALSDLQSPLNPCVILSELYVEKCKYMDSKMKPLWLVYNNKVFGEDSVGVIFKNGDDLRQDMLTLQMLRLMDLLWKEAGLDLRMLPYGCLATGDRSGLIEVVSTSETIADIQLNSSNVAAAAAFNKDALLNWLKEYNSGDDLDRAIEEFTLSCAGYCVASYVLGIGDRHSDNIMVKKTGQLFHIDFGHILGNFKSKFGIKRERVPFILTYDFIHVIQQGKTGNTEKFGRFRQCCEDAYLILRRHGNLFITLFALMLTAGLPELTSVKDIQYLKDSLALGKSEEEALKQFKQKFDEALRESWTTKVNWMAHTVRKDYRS

[3] = target: PI3-kinase p110-alpha/p85-alpha (Homo sapiens, UniProt P42336); assay: Inhibition of recombinant human His6-tagged PI3K p110alpha/p85alpha using DiC8-PIP2 as substrate preincubated for 15 mins followed by substrate addition measured after 60 mins by ADP-Glo assay; format: protein-complex assay
Sequence of PI3-kinase p110-alpha/p85-alpha (P27986 whole entry): as the sequence (P27986 whole entry) above
Sequence of PI3-kinase p110-alpha/p85-alpha (P42336 whole entry): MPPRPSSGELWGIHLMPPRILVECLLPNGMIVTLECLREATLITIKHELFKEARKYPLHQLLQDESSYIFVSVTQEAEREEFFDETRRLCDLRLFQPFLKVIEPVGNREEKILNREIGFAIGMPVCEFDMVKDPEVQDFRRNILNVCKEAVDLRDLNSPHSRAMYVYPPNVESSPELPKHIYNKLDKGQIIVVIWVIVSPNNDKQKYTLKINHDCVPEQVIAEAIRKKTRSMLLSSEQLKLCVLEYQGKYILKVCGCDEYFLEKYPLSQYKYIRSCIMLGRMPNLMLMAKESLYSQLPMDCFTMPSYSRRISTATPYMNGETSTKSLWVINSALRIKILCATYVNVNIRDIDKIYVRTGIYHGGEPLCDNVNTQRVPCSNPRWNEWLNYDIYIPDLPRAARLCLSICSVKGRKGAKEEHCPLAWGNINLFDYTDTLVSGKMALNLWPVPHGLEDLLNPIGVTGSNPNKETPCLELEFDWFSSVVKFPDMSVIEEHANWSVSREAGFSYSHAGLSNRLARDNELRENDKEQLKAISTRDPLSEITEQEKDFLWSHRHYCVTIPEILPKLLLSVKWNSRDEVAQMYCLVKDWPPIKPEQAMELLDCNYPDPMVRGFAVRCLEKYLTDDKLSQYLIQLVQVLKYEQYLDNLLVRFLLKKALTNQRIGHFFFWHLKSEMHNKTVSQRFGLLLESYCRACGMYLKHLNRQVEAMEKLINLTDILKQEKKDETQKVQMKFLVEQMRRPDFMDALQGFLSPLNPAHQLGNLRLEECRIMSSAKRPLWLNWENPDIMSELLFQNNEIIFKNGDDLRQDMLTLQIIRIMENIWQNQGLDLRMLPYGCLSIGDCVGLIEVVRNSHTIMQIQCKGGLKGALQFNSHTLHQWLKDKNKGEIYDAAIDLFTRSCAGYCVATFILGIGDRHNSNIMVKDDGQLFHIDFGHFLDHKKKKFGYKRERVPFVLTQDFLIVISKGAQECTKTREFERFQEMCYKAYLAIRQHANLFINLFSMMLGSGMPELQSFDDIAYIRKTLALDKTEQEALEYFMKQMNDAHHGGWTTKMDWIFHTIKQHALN

[4] = Lipophilicity, log D of the compound; format: physicochemical; conditions: octanol/water
[5] = target: PI3-kinase p110-delta/p85-alpha (Homo sapiens, UniProt O00329); assay: Inhibition of recombinant human His6-tagged PI3K p110delta/p85alpha using DiC8-PIP2 as substrate preincubated for 15 mins followed by substrate addition measured after 60 mins by ADP-Glo assay; format: protein-complex assay
Sequence of PI3-kinase p110-delta/p85-alpha (P27986 whole entry, one chain of several): as the sequence (P27986 whole entry) above

[6] = Terminal half life in it dosed rat lung by LC-MS/MS analysis; format: ADME, organism-based; conditions: inhaled or intranasal, read-out: beta t1/2 (converted)
[7] = Solubility of the compound; format: physicochemical
[8] = Metabolic stability in it dosed rat lungs assessed as compound remaining at 4 hrs post dose by LC-MS/MS analysis; format: ADME, organism-based; conditions: lung, inhaled or intranasal, read-out: Stability
[9] = Metabolic stability in it dosed rat lungs assessed as compound remaining at 24 hrs post dose by LC-MS/MS analysis; format: ADME, organism-based; conditions: lung, inhaled or intranasal, read-out: Stability
[10] = Dissociation constant, basic pKa of compound; format: physicochemical
[11] = Dissociation constant, acidic pKa of compound; format: physicochemical

Compound	IC50 [1] [nM]	IC50 [2] [nM]	IC50 (PI3K p110 beta/p85 alpha) [nM]	IC50 [3] [nM]	logD [4]	IC50 [5] [nM]	half-life [6] [h]	solubility [7] [µM]	remaining at 4 h [8] [%]	remaining at 24 h [9] [%]	pKa [10]	pKa [11]
Cc1csc2cc([C@H](C)Nc3ncnc(N)c3C#N)c(-c3cccc(CCN(C)C)c3)c(=O)n12	2.51	> 1000	50.1	1260	0.5	0.794	–	–	–	–	–	–
Cc1csc2cc([C@H](C)Nc3ncnc(N)c3C#N)c(-c3cccc(CC4CCN(C(C)C)CC4)c3)c(=O)n12	1.58	251	398	1000	1.1	0.631	–	–	–	–	–	–
Cc1csc2cc([C@H](C)Nc3ncnc(N)c3C#N)c(-c3cccc(CN4CCC4)c3)c(=O)n12	2.51	501	39.8	1580	0.5	0.501	1.1	954 (≈ 450 µg/mL)	0.5	0	–	–
CNCc1cccc(-c2c([C@H](C)Nc3ncnc(N)c3C#N)cc3scc(C)n3c2=O)c1	20	631	10	1260	-0.2	0.794	4.9	> 1000	2.5	0	–	–
Cc1csc2cc([C@H](C)Nc3ncnc(N)c3C#N)c(-c3cccc(CN(C)CCCCN4C[C@@H](C)O[C@@H](C)C4)c3)c(=O)n12	6.31	≥ 200	79.4	≥ 631	1.5	1.26	7.6	–	–	3.9	6.3	8.9
Cc1csc2cc([C@H](C)Nc3ncnc(N)c3C#N)c(-c3cccc(CN)c3)c(=O)n12	39.8	200	7.94	1260	-0.3	0.631	1.6	> 1000	2	0	–	–
Cc1csc2cc([C@H](C)Nc3ncnc(N)c3C#N)c(-c3cccc(CN4CCC(CN(C)CC(C)C)CC4)c3)c(=O)n12	2.51	≥ 200	50.1	≥ 631	2.1	0.631	12	–	–	3.3	8	9.8
Cc1csc2cc([C@H](C)Nc3ncnc(N)c3C#N)c(-c3cccc(OCCN(C)C)c3)c(=O)n12	6.31	316	200	7940	0.7	1.58	–	–	–	–	–	–
Cc1csc2cc([C@H](C)Nc3ncnc(N)c3C#N)c(-c3cccc(CN(C)CCCN4C[C@@H](C)O[C@@H](C)C4)c3)c(=O)n12	5.01	≥ 200	126	≥ 631	1.5	1.26	5.9	–	–	0.8	5.7	8.5
Cc1csc2cc([C@H](C)Nc3ncnc(N)c3C#N)c(-c3cccc(CNCCCCOCCc4ccccc4)c3)c(=O)n12	1.26	316	7.94	501	2.3	0.398	3.5	699 (≈ 425 µg/mL)	4.8	0	–	–
Cc1csc2cc([C@H](C)Nc3ncnc(N)c3C#N)c(-c3cccc(CN(C)C)c3)c(=O)n12	1.58	631	63.1	3160	0.8	0.794	2.3	956 (≈ 439 µg/mL)	0.2	0	–	–
CCN(CCN1CCOCC1)Cc1cccc(-c2c([C@H](C)Nc3ncnc(N)c3C#N)cc3scc(C)n3c2=O)c1	1.26	≥ 200	251	≥ 631	1.4	0.794	–	–	–	0	4	8
Cc1csc2cc([C@H](C)Nc3ncnc(N)c3C#N)c(-c3cccc(CN(C)CCCCN(C)Cc4ccccc4)c3)c(=O)n12	2	≥ 200	15.8	≥ 631	2.2	0.501	17.6	–	–	7.4	7	9.1
Cc1csc2cc([C@H](C)Nc3ncnc(N)c3C#N)c(-c3cccc(CN(C)CCCN(C)Cc4ccc(Cl)cc4)c3)c(=O)n12	3.16	≥ 200	12.6	≥ 631	3.2	0.631	13	–	–	3.3	7.5	8.8
Cc1csc2cc([C@H](C)Nc3ncnc(N)c3C#N)c(-c3cccc(CN4CCC(CN(C)Cc5ccccn5)CC4)c3)c(=O)n12	2	≥ 200	63.1	≥ 631	2	0.794	10.9	–	–	5.2	7	9
Cc1csc2cc([C@H](C)Nc3ncnc(N)c3C#N)c(-c3cccc(CNCCN4CCOCC4)c3)c(=O)n12	12.6	≥ 200	20	≥ 631	0.6	0.631	4.2	–	–	0.1	4.7	9.6
